Laboratory results taken from US4725621A, “CL-1957E antibiotic compound and its production” (priority 1986, dated 1988).
Values after ≈ are worked out from the molar mass of the structure shown. Where a name gives a salt, the structure may show the parent alone.

How the values were obtained:
solubility in water = type: physicochemical; settings: lyophilized triethylammonium salt
Description: A cooled solution of triethylamine (2.45 ml, 0.176 mmol) in 7.55 ml of water is added dropwise with stirring to a solution of 100 mg (0.176 mmol) of CL-1957E in 2.5 ml of methanol. The resulting solution is concentrated to a final volume of about 2 ml on a rotary evaporator and then diluted to 40 ml with water. Two-milliliter aliquots of this solution were added to each of several 6-ml vials.

[1] = system: human colon adenocarcinoma (HCT 8) cells; experiment: in vitro cytotoxicity against human colon adenocarcinoma (HCT 8) cells; type: cell-based; settings: read-out: ID50 (cytotoxicity)
Description: (§1) The cytotoxicity of CL-1957E against L1210 mouse leukemia cells and against human colon adenocarcinoma (HCT 8) cells was measured in vitro. The ID50 values appear in Table 8.

P388 leukemia = experiment: in vivo activity against P388 leukemia in mice; settings: Days 1-5, P388 inoculated intraperitoneally Day 0
Description: The in vivo activity of CL-1957E against P388 leukemia in mice was assayed using the protocol established in Cancer Chemotherapy Reports, Vol. 3, Part 3, 1-87 (1972). The results of these tests are presented in Table 7 in terms of %T/C values which are the ratios of mean survival times of treated to control animals, expressed as percentages.

Rhodotorula aurantiaca = experiment: antimicrobial activity, broth microdilution (yeast extract-peptone-dextrose broth); type: cell-based; settings: Buckleyzyma aurantiaca; culture number M1508; read-out: Minimal Inhibitory Concentration (MIC)
Description: (§2) The antimicrobial activity of CL-1957E was evaluated using the broth microdilution method. Serial dilutions of CL-1957E were made in Muellar-Hinton broth for bacteria and in yeast extract-peptone-dextrose broth for the fungi.

Rhizopus japonicus = experiment: as above; type: cell-based; settings: culture number M1557, read-out: Minimal Inhibitory Concentration (MIC)
Description: as §2

[2] = system: Schizosaccharomyces pombe; experiment: as above; type: cell-based; settings: culture number M1388, read-out: Minimal Inhibitory Concentration (MIC)
Description: as §2

Mucor parasiticus = experiment: as above; type: cell-based; settings: culture number M2652, read-out: Minimal Inhibitory Concentration (MIC)
Description: as §2

Torulopsis albida = experiment: as above; type: cell-based; settings: Naganishia albida; culture number M1390; read-out: Minimal Inhibitory Concentration (MIC)
Description: as §2

Saccharomyces cerevisiae = experiment: as above; type: cell-based; settings: culture number S288, read-out: Minimal Inhibitory Concentration (MIC)
Description: as §2

Streptococcus faecalis = experiment: antimicrobial activity, broth microdilution (Mueller-Hinton broth); type: cell-based; settings: Enterococcus faecalis; culture number 05045; read-out: Minimal Inhibitory Concentration (MIC)
Description: as §2

Micrococcus luteus = experiment: as above; type: cell-based; settings: culture number 05064, read-out: Minimal Inhibitory Concentration (MIC)
Description: as §2

Streptococcus pyogenes = experiment: as above; type: cell-based; settings: culture number C203, read-out: Minimal Inhibitory Concentration (MIC)
Description: as §2

Alcaligenes viscolactis = experiment: as above; type: cell-based; settings: culture number 21698, read-out: Minimal Inhibitory Concentration (MIC)
Description: as §2

Pseudomonas aeruginosa = experiment: as above; type: cell-based; settings: culture number 05111, read-out: Minimal Inhibitory Concentration (MIC)
Description: as §2

Salmonella typhimurium = experiment: as above; type: cell-based; settings: Salmonella enterica, culture number TA1535, read-out: Minimal Inhibitory Concentration (MIC)
Description: as §2

Streptococcus pneumoniae = experiment: as above; type: cell-based; settings: culture number SV1, read-out: Minimal Inhibitory Concentration (MIC)
Description: as §2

Escherichia coli = experiment: as above; type: cell-based; settings: culture number 04863, read-out: Minimal Inhibitory Concentration (MIC)
Description: as §2

Bacillus cereus = experiment: as above; type: cell-based; settings: culture number 04810, read-out: Minimal Inhibitory Concentration (MIC)
Description: as §2

Bacillus megaterium = experiment: as above; type: cell-based; settings: Priestia megaterium; culture number 066; read-out: Minimal Inhibitory Concentration (MIC)
Description: as §2

Staphylococcus aureus = experiment: as above; type: cell-based; settings: culture number 02482, read-out: Minimal Inhibitory Concentration (MIC)
Description: as §2

Branhamella catarrhalis = experiment: as above; type: cell-based; settings: Moraxella catarrhalis; culture number 03596; read-out: Minimal Inhibitory Concentration (MIC)
Description: as §2

[3] = system: L1210 mouse leukemia cells; experiment: in vitro cytotoxicity against L1210 mouse leukemia cells; type: cell-based; settings: read-out: ID50 (cytotoxicity)
Description: as §1

CC(/C=C/C1OC(=O)C=CC1C)=C\C(C)C/C=C/C(C)=C/C(CO)C(=O)C(C)C(O)C(C)C/C(C)=C/C(=O)O (stereo not shown) [CL-1957E triethylammonium salt]
solubility in water (solubility in water): soluble in water

CC(/C=C/C1OC(=O)C=CC1C)=C\C(C)C/C=C/C(C)=C/C(CO)C(=O)C(C)C(O)C(C)C/C(C)=C/C(=O)O (stereo not shown) [CL-1957E, 19-(3,6-dihydro-3-methyl-6-oxo-2H-pyran-2-yl)-6-hydroxy-9-(hydroxymethyl)-3,5,7,11,15,17-hexamethyl-8-oxo-2,10,12,16,18-nonadecapentaenoic acid]
IC50 [1]: 0.001 µg/mL (≈ 0.00184 µM) | % T/C (ratio of mean survival times of treated to control animals) (P388 leukemia; 25 μg/kg/injection): 130% | % T/C (ratio of mean survival times of treated to control animals) (P388 leukemia; 50 μg/kg/injection): 139% | % T/C (ratio of mean survival times of treated to control animals) (P388 leukemia; 100 μg/kg/injection): 153% | % T/C (entry in words: toxicity) (P388 leukemia; 200 μg/kg/injection): Toxic | MIC (Rhodotorula aurantiaca): > 1000 µg/mL | MIC (Rhizopus japonicus): > 1000 µg/mL | MIC [2]: 12.3 µg/mL (≈ 22.7 µM) | MIC (Mucor parasiticus): > 1000 µg/mL | MIC (Torulopsis albida): > 1000 µg/mL | MIC (Saccharomyces cerevisiae): > 1000 µg/mL | MIC (Streptococcus faecalis): ≤ 0.46 µg/mL | MIC (Micrococcus luteus): ≤ 0.46 µg/mL | MIC (Streptococcus pyogenes): ≤ 0.46 µg/mL | MIC (Alcaligenes viscolactis): ≤ 0.46 µg/mL | MIC (Pseudomonas aeruginosa): > 1000 µg/mL | MIC (Salmonella typhimurium): > 1000 µg/mL | MIC (Streptococcus pneumoniae): ≤ 0.46 µg/mL | MIC (Escherichia coli): > 1000 µg/mL | MIC (Bacillus cereus): ≤ 0.46 µg/mL | MIC (Bacillus megaterium): ≤ 0.46 µg/mL | MIC (Staphylococcus aureus): ≤ 0.46 µg/mL | MIC (Branhamella catarrhalis): ≤ 0.46 µg/mL | IC50 [3]: 0.0034 µg/mL (≈ 0.00626 µM)
